ChEMBL document CHEMBL4616628, “Unexpected small molecules as novel SIRT2 suicide inhibitors” (Bioorg Med Chem, 2020)
Calls of active or inactive are those of the source. The rule behind the calls is not given here.

How the values were obtained:
[1] = target: T1, NAD-dependent protein deacetylase sirtuin-3, mitochondrial (Homo sapiens, UniProt Q9NTG7); assay: Inhibition of SIRT3 deacetylation activity (unknown origin) using H3K9Ac (4 to 15 residues) as substrate by HPLC analysis
T1 sequence (Q9NTG7 whole entry): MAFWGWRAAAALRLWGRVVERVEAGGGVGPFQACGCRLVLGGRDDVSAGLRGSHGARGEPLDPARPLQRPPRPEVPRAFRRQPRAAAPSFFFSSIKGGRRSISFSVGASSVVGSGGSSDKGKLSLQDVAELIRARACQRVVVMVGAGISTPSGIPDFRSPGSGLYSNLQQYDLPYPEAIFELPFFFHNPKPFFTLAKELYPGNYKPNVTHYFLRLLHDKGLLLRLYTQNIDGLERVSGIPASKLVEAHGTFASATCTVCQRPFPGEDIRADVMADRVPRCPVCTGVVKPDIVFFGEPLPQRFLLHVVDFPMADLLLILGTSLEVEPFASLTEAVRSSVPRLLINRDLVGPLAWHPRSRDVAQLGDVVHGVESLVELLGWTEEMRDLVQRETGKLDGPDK

[2] = target: NAD-dependent protein deacylase sirtuin-5, mitochondrial (Homo sapiens, UniProt Q9NXA8); assay: Inhibition of SIRT5 desuccinylation activity (unknown origin) using H3K9Su (4 to 15 residues) as substrate by HPLC analysis
NAD-dependent protein deacylase sirtuin-5, mitochondrial, sequence (Q9NXA8 whole entry, the tested form may be a part): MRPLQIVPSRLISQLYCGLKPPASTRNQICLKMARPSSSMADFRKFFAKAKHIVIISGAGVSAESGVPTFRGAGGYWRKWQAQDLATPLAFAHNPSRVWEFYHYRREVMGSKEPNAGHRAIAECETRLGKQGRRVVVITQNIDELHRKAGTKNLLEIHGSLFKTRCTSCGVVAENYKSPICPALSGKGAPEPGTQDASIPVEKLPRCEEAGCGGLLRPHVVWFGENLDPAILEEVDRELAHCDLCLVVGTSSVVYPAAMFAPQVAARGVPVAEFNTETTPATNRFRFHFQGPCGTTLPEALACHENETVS

[3] = target: T2, NAD-dependent protein deacetylase sirtuin-1 (Homo sapiens, UniProt Q96EB6); assay: Inhibition of SIRT1 deacetylation activity (unknown origin) using H3K9Ac (4 to 15 residues) as substrate by HPLC analysis
T2 sequence (Q96EB6 whole entry): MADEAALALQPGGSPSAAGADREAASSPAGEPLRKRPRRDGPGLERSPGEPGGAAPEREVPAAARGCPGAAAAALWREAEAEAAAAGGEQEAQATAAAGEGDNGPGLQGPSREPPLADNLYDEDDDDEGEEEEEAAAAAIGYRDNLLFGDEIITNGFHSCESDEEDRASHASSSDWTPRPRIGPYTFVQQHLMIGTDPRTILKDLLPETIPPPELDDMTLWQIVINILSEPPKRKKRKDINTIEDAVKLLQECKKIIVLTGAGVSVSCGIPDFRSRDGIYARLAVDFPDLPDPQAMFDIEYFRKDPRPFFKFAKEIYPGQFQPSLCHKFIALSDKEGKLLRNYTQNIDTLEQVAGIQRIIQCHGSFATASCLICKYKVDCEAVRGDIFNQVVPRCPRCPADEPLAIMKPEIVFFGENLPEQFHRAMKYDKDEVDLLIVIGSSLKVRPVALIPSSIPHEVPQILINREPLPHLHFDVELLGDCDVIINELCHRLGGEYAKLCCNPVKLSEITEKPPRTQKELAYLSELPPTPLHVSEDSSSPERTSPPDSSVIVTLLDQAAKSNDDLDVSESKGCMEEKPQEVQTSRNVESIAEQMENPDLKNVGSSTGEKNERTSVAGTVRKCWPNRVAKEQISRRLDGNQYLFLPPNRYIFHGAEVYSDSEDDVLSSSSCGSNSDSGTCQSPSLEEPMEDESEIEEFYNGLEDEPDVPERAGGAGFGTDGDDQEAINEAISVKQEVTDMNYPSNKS

[4] = target: T3, NAD-dependent protein deacetylase sirtuin-2 (Homo sapiens, UniProt Q8IXJ6); assay: Inhibition of SIRT2 deacetylation activity (unknown origin) using H3K9Ac ( 4 to 15 residues) as substrate by HPLC analysis
T3 sequence (Q8IXJ6 whole entry): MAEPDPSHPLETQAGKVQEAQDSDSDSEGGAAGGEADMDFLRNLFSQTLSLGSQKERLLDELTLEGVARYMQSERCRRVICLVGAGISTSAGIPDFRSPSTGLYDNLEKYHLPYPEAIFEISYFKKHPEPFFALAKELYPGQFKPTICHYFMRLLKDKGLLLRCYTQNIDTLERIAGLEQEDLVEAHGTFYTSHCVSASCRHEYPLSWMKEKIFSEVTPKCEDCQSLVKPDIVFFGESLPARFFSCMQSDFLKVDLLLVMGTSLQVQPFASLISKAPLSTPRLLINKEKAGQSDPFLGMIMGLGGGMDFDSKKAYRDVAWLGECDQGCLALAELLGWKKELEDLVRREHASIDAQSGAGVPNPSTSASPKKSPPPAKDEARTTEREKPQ

Homo sapiens [5] = organism: Homo sapiens; assay: Selectivity ratio of IC50 for inhibition of SIRT3 deacetylation activity (unknown origin) to IC50 for inhibition of SIRT2 deacetylation activity (unknown origin)
Homo sapiens [6] = organism: Homo sapiens; assay: Selectivity ratio of IC50 for inhibition of SIRT1 deacetylation activity (unknown origin) to IC50 for inhibition of SIRT2 deacetylation activity (unknown origin)
[7] = target: T3, NAD-dependent protein deacetylase sirtuin-2; assay: Inhibition of SIRT2 defatty-acylation activity (unknown origin) using H4K8-Myr (3 to 13 residues) as substrate by HPLC analysis
[8] = target: T4, NAD-dependent protein deacetylase sirtuin-2 (Homo sapiens) (UniProt Q8IXJ6); assay: Inhibition of SIRT2 deacetylation activity (unknown origin) assessed as increase in substrate apparent Km at 2 uM using H4K8Ac (3 to 13 residues) as substrate
T4 sequence (whole entry): T3 sequence (Q8IXJ6 whole entry)

Homo sapiens [9] = organism: Homo sapiens; assay: Selectivity ratio of IC50 for inhibition of SIRT5 desuccinylation activity (unknown origin) to IC50 for inhibition of SIRT2 deacetylation activity (unknown origin)
[10] = target: T3, NAD-dependent protein deacetylase sirtuin-2; assay: Inhibition of SIRT2 deacetylation activity (unknown origin) using H4K8Ac (3 to 13 residues) as substrate by HPLC analysis
[11] = target: T4, NAD-dependent protein deacetylase sirtuin-2 (Homo sapiens); assay: Irreversible inhibition of SIRT2 deacetylation activity (unknown origin) up to 40 uM using H4K8Ac (3 to 13 residues) as substrate
[12] = target: T3, NAD-dependent protein deacetylase sirtuin-2; assay: Inhibition of SIRT2 debenzoylation activity (unknown origin) using benzoylated histone H4K8 peptide (3 to 13 residues ) as substrate by HPLC analysis

SMILES	IC50 [1]	IC50 [2]	IC50 [3]	IC50 [4]	Ratio IC50 (Homo sapiens [5])	Ratio IC50 (Homo sapiens [6])	IC50 [7]	inhibition [8]	Ratio IC50 (Homo sapiens [9])	IC50 [10]	inhibition [11]	IC50 [12]
O=C(On1nnc2ccccc21)c1c[nH]c2ccccc12	> 200 µM	> 200 µM	> 200 µM	14.3 µM	10	10	73.6 µM	Active	10	22.1 µM	Active	81 µM
O=C(On1nnc2ncccc21)c1c[nH]c2ccc(Br)cc12		> 200 µM	40.3 µM	77.1 µM								
Cc1cc(C)nc(SCC(=O)Nc2ncc(Cc3cccc4ccccc34)s2)n1	> 200 µM	> 200 µM	> 200 µM									

The next lines start with the values.

IC50 [1]	IC50 [2]	IC50 [3]	IC50 [4]	Ratio IC50 (Homo sapiens [5])	Ratio IC50 (Homo sapiens [6])	IC50 [7]	inhibition [8]	Ratio IC50 (Homo sapiens [9])	IC50 [10]	inhibition [11]	IC50 [12]	SMILES
> 200 µM	> 200 µM	> 200 µM	56.6 µM									O=C(On1nnc2ccccc21)c1cc[nH]c1
84.9 µM	> 200 µM	51.9 µM	74 µM									Cc1ccc2[nH]cc(C(=O)On3nnc4ccccc43)c2c1
> 200 µM	> 200 µM	> 200 µM	42.7 µM									O=C(On1nnc2ccccc21)c1ccc[nH]1
